Columns and labels:
Homo sapiens = species on record: Homo sapiens; experiment: Selectivity ratio of EC50 for agonist activity at Gal4-fused human PPAR-alpha ligand binding domain expressed in CHO-K1 cells to EC50 for agonist activity at Gal4-fused human PPAR-delta ligand binding domain expressed in CHO-K1 cells; assay type: cell-based
[1] = target: T1, Peroxisome proliferator-activated receptor alpha (Mus musculus, UniProt P23204); experiment: Agonist activity at Gal4-fused mouse PPAR-alpha ligand binding domain expressed in CHO-K1 cells assessed as receptor transactivation incubated for 24 to 48 hrs by luciferase reporter gene assay; assay type: cell-based
T1 sequence (P23204 whole entry): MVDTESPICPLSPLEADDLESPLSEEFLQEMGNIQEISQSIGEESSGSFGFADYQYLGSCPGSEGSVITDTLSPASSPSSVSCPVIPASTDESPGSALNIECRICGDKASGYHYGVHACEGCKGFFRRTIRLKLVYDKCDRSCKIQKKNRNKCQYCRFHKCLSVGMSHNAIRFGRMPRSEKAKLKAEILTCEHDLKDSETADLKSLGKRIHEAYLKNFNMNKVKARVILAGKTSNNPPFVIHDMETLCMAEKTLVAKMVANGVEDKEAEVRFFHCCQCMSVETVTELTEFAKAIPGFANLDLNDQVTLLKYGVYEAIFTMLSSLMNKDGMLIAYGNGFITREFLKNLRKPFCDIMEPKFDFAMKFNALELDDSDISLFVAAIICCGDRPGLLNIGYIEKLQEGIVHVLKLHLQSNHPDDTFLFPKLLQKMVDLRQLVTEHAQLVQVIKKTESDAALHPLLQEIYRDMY

Mus musculus = species on record: Mus musculus; experiment: Selectivity ratio of EC50 for agonist activity at Gal4-fused mouse PPAR-gamma ligand binding domain expressed in CHO-K1 cells to EC50 for agonist activity at Gal4-fused mouse PPAR-delta ligand binding domain expressed in CHO-K1 cells; assay type: cell-based
[2] = target: T2, Peroxisome proliferator-activated receptor alpha (Mus musculus) (UniProt P23204); experiment: Agonist activity at Gal4-fused mouse PPAR-alpha ligand binding domain expressed in CHO-K1 cells assessed as receptor transactivation incubated for 24 to 48 hrs by luciferase reporter gene assay relative to control; assay type: cell-based; details: time lower 24.0 hrs, time upper […]
T2 sequence (whole entry): T1 sequence (P23204 whole entry)

[3] = target: T3, Peroxisome proliferator-activated receptor alpha (Homo sapiens) (UniProt Q07869); experiment: Agonist activity at Gal4-fused human PPAR-alpha ligand binding domain expressed in CHO-K1 cells assessed as receptor transactivation incubated for 24 to 48 hrs by luciferase reporter gene assay relative to control; assay type: cell-based; details: time lower 24.0 hrs, time upper […]
T3 sequence (whole entry): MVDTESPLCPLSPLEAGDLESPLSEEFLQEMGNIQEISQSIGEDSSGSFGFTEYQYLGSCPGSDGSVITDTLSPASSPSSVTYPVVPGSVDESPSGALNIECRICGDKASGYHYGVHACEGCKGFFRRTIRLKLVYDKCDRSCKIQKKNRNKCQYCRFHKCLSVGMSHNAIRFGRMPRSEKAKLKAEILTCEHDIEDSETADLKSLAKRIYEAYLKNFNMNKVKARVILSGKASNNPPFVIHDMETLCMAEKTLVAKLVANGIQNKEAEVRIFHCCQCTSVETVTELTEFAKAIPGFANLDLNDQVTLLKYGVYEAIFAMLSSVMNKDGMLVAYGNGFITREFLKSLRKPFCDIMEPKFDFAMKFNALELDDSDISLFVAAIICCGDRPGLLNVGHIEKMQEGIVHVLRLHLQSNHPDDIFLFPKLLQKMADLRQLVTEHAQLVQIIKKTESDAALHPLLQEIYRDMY

[4] = target: T4, Peroxisome proliferator-activated receptor delta (Homo sapiens) (UniProt Q03181); experiment: Agonist activity at Gal4-fused human PPAR-delta ligand binding domain expressed in CHO-K1 cells assessed as receptor transactivation incubated for 24 to 48 hrs by luciferase reporter gene assay relative to control; assay type: cell-based; details: time lower 24.0 hrs, time upper […]
T4 sequence (whole entry): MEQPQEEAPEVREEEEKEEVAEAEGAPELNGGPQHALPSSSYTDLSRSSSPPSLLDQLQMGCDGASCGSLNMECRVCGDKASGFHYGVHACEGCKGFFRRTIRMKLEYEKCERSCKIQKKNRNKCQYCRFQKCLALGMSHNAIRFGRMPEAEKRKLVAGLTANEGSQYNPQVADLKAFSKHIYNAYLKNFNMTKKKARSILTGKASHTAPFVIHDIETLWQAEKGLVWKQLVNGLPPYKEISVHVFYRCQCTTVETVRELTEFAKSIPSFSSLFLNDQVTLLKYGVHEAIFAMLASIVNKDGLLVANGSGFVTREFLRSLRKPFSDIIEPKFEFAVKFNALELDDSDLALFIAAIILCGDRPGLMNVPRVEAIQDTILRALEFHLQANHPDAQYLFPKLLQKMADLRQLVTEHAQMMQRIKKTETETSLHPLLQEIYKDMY

[5] = target: T5, Peroxisome proliferator-activated receptor alpha (Homo sapiens, UniProt Q07869); experiment: Agonist activity at Gal4-fused human PPAR-alpha ligand binding domain expressed in CHO-K1 cells assessed as receptor transactivation incubated for 24 to 48 hrs by luciferase reporter gene assay; assay type: cell-based
T5 sequence (Q07869 whole entry): T3 sequence (whole entry)

[6] = target: T6, Peroxisome proliferator-activated receptor gamma (Homo sapiens, UniProt P37231); assay type: cell-based, CHO-K1
T6 sequence (P37231 whole entry): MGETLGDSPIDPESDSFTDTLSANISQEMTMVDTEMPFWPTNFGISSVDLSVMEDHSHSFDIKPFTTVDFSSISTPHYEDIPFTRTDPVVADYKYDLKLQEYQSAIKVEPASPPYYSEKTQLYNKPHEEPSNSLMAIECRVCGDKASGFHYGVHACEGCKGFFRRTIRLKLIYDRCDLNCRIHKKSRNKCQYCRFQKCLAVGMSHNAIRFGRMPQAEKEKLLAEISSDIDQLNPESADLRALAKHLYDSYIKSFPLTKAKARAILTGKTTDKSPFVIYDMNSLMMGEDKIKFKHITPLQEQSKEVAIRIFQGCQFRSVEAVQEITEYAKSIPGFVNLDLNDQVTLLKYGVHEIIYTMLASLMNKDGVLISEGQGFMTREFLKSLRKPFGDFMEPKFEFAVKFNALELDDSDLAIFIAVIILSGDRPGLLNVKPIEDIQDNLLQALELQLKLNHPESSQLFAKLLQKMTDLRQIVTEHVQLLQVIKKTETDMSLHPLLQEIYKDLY

Row | Compound | Ratio EC50 (Homo sapiens) | EC50 [1] [µM] | Ratio EC50 (Mus musculus) | Emax [2] [%] | Emax [3] [%] | Emax [4] [%] | EC50 [5] [µM] | EC50 [6] [µM]
1 | Cc1cc(CC(=O)O)cc(CN2CCN(c3nc4ccc(C(F)(F)F)cc4s3)[C@H](C)C2)c1 | 258 | 3.7 | 74 | 1.7 | 6.3 | 13.5 | 1.6 | 1.2
2 | Cc1cc(CC(=O)O)cc(CN2CCN(c3nc4ccc(C(F)(F)F)cc4s3)[C@@H](C)C2)c1 | 175 | 3.9 | 69 | 9 | 6.3 | 14 | 1.8 | 3.1

Reference: ChEMBL document CHEMBL5260859, “Discovery and structure-activity relationship study of 2-piperazinyl-benzothiazole derivatives as potent and selective PPARδ agonists” (Bioorg Med Chem, 2023)
